The text below walks through data of PubChem BioAssay AID330 (DTP/NCI, 2004).

This test relates to P388 leukemia ip, CD2F1 mice, survival T/C. The experiment in a line: NCI In Vivo Anticancer Drug Screen. Data for tumor model P388 Leukemia (intraperitoneal) in CD2F1 (CDF1) mice. Particulars: endpoint: median survival time, higher = longer survival. In short, it runs like this: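 Mice carrying the transplanted tumor received test compound or vehicle. Survival was recorded in each group, and the value is the treated-group measurement divided by that of the vehicle-treated control group.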

[1] abbreviates: dose: 60.0 mg/kg/injection, schedule: Q01DX005 (ip), vehicle: saline with Tween-80.
[2] abbreviates: dose: 120.0 mg/kg/injection, schedule: Q01DX005 (ip), vehicle: saline with Tween-80.
Where [3] appears, read: dose: 240.0 mg/kg/injection, schedule: Q01DX005 (ip), vehicle: saline with Tween-80.
Where [4] appears, read: dose: 25.0 mg/kg/injection, schedule: Q01DX009 (ip), vehicle: Klucel (hydroxypropylcellulose) (HPC).
The mark [5] stands for this setting: dose: 50.0 mg/kg/injection, schedule: Q01DX009 (ip), vehicle: Klucel (hydroxypropylcellulose) (HPC).
The mark [6] stands for this setting: dose: 100.0 mg/kg/injection, schedule: Q04DX003 (ip), vehicle: saline.

Where “and” joins values, the source holds several entries; their conditions need not be identical. Identical values can stand only once. Toxic doses and inconclusive results are not listed.

Take `O=NNc1ccc(-c2ccc(NN=O)cc2)cc1`: the T/C (dose: 3.12 mg/kg/injection, schedule: Q01DX009 (ip), vehicle: water) was 97 % of control; the T/C (dose: 6.25 mg/kg/injection, schedule: Q01DX009 (ip), vehicle: water) was 95 % of control; the T/C (dose: 12.5 mg/kg/injection, schedule: Q01DX009 (ip), vehicle: water) is 97 % of control; the T/C (dose: 25.0 mg/kg/injection, schedule: Q01DX009 (ip), vehicle: water) is 100 % of control and 89 % of control; the T/C (dose: 50.0 mg/kg/injection, schedule: Q01DX009 (ip), vehicle: water) was 89 % of control and 94 % of control; the T/C (dose: 100.0 mg/kg/injection, schedule: Q01DX009 (ip), vehicle: water) is 88 % of control. Also, where the note is “dose: 200.0 mg/kg/injection, schedule: Q01DX009 (ip), vehicle: water”, the T/C was 91 % of control.

Regarding `COC(=O)c1cc(-c2ccc([N+](=O)[O-])cc2)c2c(=O)n(-c3ccccc3)[nH]c2n1`, the T/C is 94 % of control under setting [1], 87 % of control under setting [2] and 88 % of control under setting [3].

For the compound `COc1ccc(C(c2cc3c(cc2O)OCO3)N2CCCCC2)cc1` (stereo not given), the T/C under setting [1] is 114 % of control, the T/C under setting [2] was 112 % of control and the T/C under setting [3] was 121 % of control.

As for `CCOC(=O)C12CCCCC1OC(=N)C2` (stereo not given), the T/C runs as follows: (dose: 60.0 mg/kg/injection, schedule: Q01DX005 (ip), vehicle: Klucel + Tween-80) 101 % of control; (dose: 120.0 mg/kg/injection, schedule: Q01DX005 (ip), vehicle: Klucel + Tween-80) 98 % of control; (dose: 240.0 mg/kg/injection, schedule: Q01DX005 (ip), vehicle: Klucel + Tween-80) 99 % of control.

As to `Nc1cc(N2C(=O)c3ccccc3C2=O)ccc1Cl`, the T/C was 109 % of control (dose: 50.0 mg/kg/injection, schedule: Q01DX005 (ip), vehicle: saline with Tween-80); 109 % of control (dose: 100.0 mg/kg/injection, schedule: Q01DX005 (ip), vehicle: saline with Tween-80); 100 % of control (dose: 200.0 mg/kg/injection, schedule: Q01DX005 (ip), vehicle: saline with Tween-80).

On to `CCCCCCCCCCCC(=O)N(CCOC(=O)C(C)(C)C)CCOC(=O)C(C)(C)C`, for which the T/C reads like this: under setting [4], 97 % of control; under setting [5], 104 % of control and 113 % of control and 94 % of control; (dose: 100.0 mg/kg/injection, schedule: Q01DX009 (ip), vehicle: Klucel (hydroxypropylcellulose) (HPC)) 100 % of control (2×) and 111 % of control; (dose: 200.0 mg/kg/injection, schedule: Q01DX009 (ip), vehicle: Klucel (hydroxypropylcellulose) (HPC)) 99 % of control and 120 % of control; (dose: 400.0 mg/kg/injection, schedule: Q01DX009 (ip), vehicle: Klucel (hydroxypropylcellulose) (HPC)) 108 % of control.

For the compound `CN1C(c2cccnc2)=NCC12CCCC2`, the T/C was 98 % of control (dose: 7.5 mg/kg/injection, schedule: Q01DX005 (ip), vehicle: saline); 96 % of control (dose: 15.0 mg/kg/injection, schedule: Q01DX005 (ip), vehicle: saline); 97 % of control (dose: 30.0 mg/kg/injection, schedule: Q01DX005 (ip), vehicle: saline).

`CCOC(=O)NC1CCc2ccccc2C1` (stereo not given): the T/C is, setting by setting: (dose: 100.0 mg/kg/injection, schedule: Q04DX003 (ip), vehicle: Klucel (hydroxypropylcellulose) (HPC)) 98 % of control; (dose: 200.0 mg/kg/injection, schedule: Q04DX003 (ip), vehicle: Klucel (hydroxypropylcellulose) (HPC)) 108 % of control; (dose: 400.0 mg/kg/injection, schedule: Q04DX003 (ip), vehicle: Klucel (hydroxypropylcellulose) (HPC)) 95 % of control.

Consider `CC(=O)Oc1ccccc1C(=O)OC1CCN(C(C)C)C1` (stereo not given), for which the T/C was 100 % of control under setting [6] and 95 % of control (dose: 200.0 mg/kg/injection, schedule: Q04DX003 (ip), vehicle: saline).

Turning to `Cn1c(=O)c2c(nc(Br)n2C)n(C)c1=O`, the T/C under setting [4] is 94 % of control and the T/C under setting [5] is 109 % of control.

For `NC(=O)N/N=C1/CCC(O)CC1CC(=O)O` (stereo not given), the T/C (dose: 50.0 mg/kg/injection, schedule: Q01DX005 (ip), vehicle: Klucel (hydroxypropylcellulose) (HPC)) is 103 % of control; the T/C (dose: 100.0 mg/kg/injection, schedule: Q01DX005 (ip), vehicle: Klucel (hydroxypropylcellulose) (HPC)) was 100 % of control; the T/C (dose: 200.0 mg/kg/injection, schedule: Q01DX005 (ip), vehicle: Klucel (hydroxypropylcellulose) (HPC)) was 97 % of control.

For the compound `CSc1nc(C)c(Br)c(Nc2ccc(C(N)=O)cc2)n1`, the T/C is 102 % of control (dose: 3.13 mg/kg/injection, schedule: Q01DX009 (ip), vehicle: saline with Tween-80); 94 % of control (dose: 6.25 mg/kg/injection, schedule: Q01DX009 (ip), vehicle: saline with Tween-80); 96 % of control (dose: 12.5 mg/kg/injection, schedule: Q01DX009 (ip), vehicle: saline with Tween-80); 94 % of control (dose: 25.0 mg/kg/injection, schedule: Q01DX009 (ip), vehicle: saline with Tween-80).

In the case of `C/C(=N\N=c1\sc2ccccc2n1CC(=O)O)c1ccc(C)cc1`, the T/C was 102 % of control (dose: 100.0 mg/kg/injection, schedule: Q01DX001 (ip), vehicle: saline with Tween-80); 106 % of control (dose: 200.0 mg/kg/injection, schedule: Q01DX001 (ip), vehicle: saline with Tween-80); 101 % of control (dose: 400.0 mg/kg/injection, schedule: Q01DX001 (ip), vehicle: saline with Tween-80).

In the case of `Cc1ccc(S(=O)(=O)N=S(C)(=O)CCCl)cc1` (stereo not given), the T/C by setting is: (dose: 25.0 mg/kg/injection, schedule: Q04DX003 (ip), vehicle: saline) 100 % of control; (dose: 50.0 mg/kg/injection, schedule: Q04DX003 (ip), vehicle: saline) 107 % of control; under setting [6], 100 % of control; (dose: 100.0 mg/kg/injection, schedule: Q04DX003 (ip), vehicle: suspension in saline) 94 % of control.

Take `CC(=O)N(C)C(C(=O)N1CC(C)CC1C(=O)N(C)C1C(=O)NC(CC(C)C)C(=O)N2CC(C)CC2C(=O)NC(CC(C)C)C(=O)N(C)C(C(C)C)C(=O)N2CCCC2C(=O)N(C)C(CC(C)C)C(=O)NCC(=O)OC1C)C(C)C` (stereo not given): the T/C is 103 % of control (dose: 3.12 mg/kg/injection, schedule: Q01DX009 (ip), vehicle: Klucel (hydroxypropylcellulose) (HPC)); 97 % of control (dose: 6.25 mg/kg/injection, schedule: Q01DX009 (ip), vehicle: Klucel (hydroxypropylcellulose) (HPC)); 100 % of control (dose: 12.5 mg/kg/injection, schedule: Q01DX009 (ip), vehicle: Klucel (hydroxypropylcellulose) (HPC)); 93 % of control (dose: 18.75 mg/kg/injection, schedule: Q01DX009 (ip), vehicle: Klucel (hydroxypropylcellulose) (HPC)); 93 % of control under setting [4].

For the compound `COc1cc(C(C)c2cc3c(cc2OCC(=O)O)OCO3)cc(OC)c1OC` (stereo not given), the T/C is 102 % of control (dose: 50.0 mg/kg/injection, schedule: Q01DX005 (ip), vehicle: distilled water + Tween-80); 97 % of control (dose: 100.0 mg/kg/injection, schedule: Q01DX005 (ip), vehicle: distilled water + Tween-80); 93 % of control (dose: 200.0 mg/kg/injection, schedule: Q01DX005 (ip), vehicle: distilled water + Tween-80).

With `CC(C)=Cc1cc(-c2cc(C=C(C)C)on2)no1`, the T/C was 100 % of control (dose: 60.0 mg/kg/injection, schedule: Q01DX005 (ip), vehicle: saline); 104 % of control (dose: 120.0 mg/kg/injection, schedule: Q01DX005 (ip), vehicle: saline); 100 % of control (dose: 240.0 mg/kg/injection, schedule: Q01DX005 (ip), vehicle: saline).

For the compound `CCOP(=O)(O)OCC.[Y]`, the T/C (dose: 100.0 mg/kg/injection, schedule: Q04DX003 (ip), vehicle: saline with Tween-80) is 93 % of control; the T/C (dose: 200.0 mg/kg/injection, schedule: Q04DX003 (ip), vehicle: saline with Tween-80) was 100 % of control; the T/C (dose: 400.0 mg/kg/injection, schedule: Q04DX003 (ip), vehicle: saline with Tween-80) is 111 % of control.

On to `Cn1cc(CCc2cc[n+](CCC[N+](C)(C)C)cc2)c2ccccc21`, for which the T/C by setting is: (dose: 1.25 mg/kg/injection, schedule: Q01DX009 (ip), vehicle: saline) 101 % of control; (dose: 2.5 mg/kg/injection, schedule: Q01DX009 (ip), vehicle: saline) 105 % of control; (dose: 5.0 mg/kg/injection, schedule: Q01DX009 (ip), vehicle: saline) 109 % of control; (dose: 10.0 mg/kg/injection, schedule: Q01DX009 (ip), vehicle: saline) 108 % of control.

Take `Cc1ccc(NCCNCCO)c2c(=O)c3ccc(O)cc3sc12`: the T/C (dose: 50.0 mg/kg/injection, schedule: Q01DX009 (ip), vehicle: saline with Tween-80) was 174 % of control.

For `O=C1c2ccccc2-c2cc3ccccc3c(=O)n21`, the T/C by setting is: under setting [1], 95 % of control; under setting [2], 91 % of control; under setting [3], 89 % of control.
